Laboratory results from US10238670B2, “9-aminomethyl minocycline compounds and methods of use thereof in urinary tract infection (UTI) treatment” (Paratek Pharmaceuticals, Inc., priority 2016, dated 2019).
Read-outs that look alike come from different tables or passages of the source.

Experiment: Phase 1b study in female adults with cystitis, urine PK
Type: in vivo, human
Conditions: for Ae0-24 (amount excreted in urine): mean; for clearance: female, human, urine and plasma
Experimental: Urine was collected, the volume recorded, and analyzed for Compound 1 concentration at the following times: • Day 1 to 2: pooled total urine 0 to 4, 4 to 8, 8 to 12, and 12-24 hours after the t=0 h dose; Collection of the 12 to 24 h sample should be completed prior to the t=24 h dose on Day 2; • Day 5 to 6: pooled total urine 0 to 4, 4 to 8, 8 to 12, and 12-24 hours after the t=96 h dose;
Urine was pooled during the intervals above. At the end of each interval, the time and total volume were recorded.
Compound 1 urine concentration data was used to determine the amount excreted in a dosing interval, the urinary excretion rate, and, in conjunction with the plasma concentration data, to estimate the renal clearance (CLr) of Compound 1.
Urine was collected and the volume recorded at the following times: • Day 1 to 2: pooled total urine 0 to 4, 4 to 8, 8 to 12, and 12-24 hours after the t=0 h dose; • Day 5 to 6: pooled total urine 0 to 4, 4 to 8, 8 to 12, and 12-24 hours after the t=96 h dose;
At the end of each collection time period the pooled urine was frozen at −20° C. or colder and the total volume of urine collected for the time period was recorded. The samples were kept frozen at −20° C. or colder pending shipment to the bioanalytical laboratory.
The urine sample volume, its Compound 1 concentration, the amount of Compound 1 excreted in the urine (product of volume and concentration) over a dosing interval, the urinary excretion rates and renal clearance (CLr) of Compound 1 following the initial Day 1 and final Day 5 doses were summarized by the treatment groups.

[1] = Day 1, 0-4 hour Post t = 0, IV_PO300
[2] = Day 1, 0-4 hour Post t = 0, PO300
[3] = Day 1, 0-4 hour Post t = 0, PO450
[4] = Day 1, 4-8 hour Post t = 0, IV_PO300
[5] = Day 1, 4-8 hour Post t = 0, PO300
[6] = Day 1, 4-8 hour Post t = 0, PO450
[7] = Day 1, 8-12 hour Post t = 0, IV_PO300
[8] = Day 1, 8-12 hour Post t = 0, PO300
[9] = Day 1, 8-12 hour Post t = 0, PO450
[10] = Day 1-2, 12-24 hour Post t = 0, IV_PO300
[11] = Day 1-2, 12-24 hour Post t = 0, PO300
[12] = Day 1-2, 12-24 hour Post t = 0, PO450
[13] = Day 1, 200 mg IV, 300 mg po (n = 11)
[14] = Day 5, 0-4 hour Post t = 96, IV_PO300
[15] = Day 5, 0-4 hour Post t = 96, PO300
[16] = Day 5, 0-4 hour Post t = 96, PO450
[17] = Day 5, 4-8 hour Post t = 96, IV_PO300
[18] = Day 5, 4-8 hour Post t = 96, PO300
[19] = Day 5, 4-8 hour Post t = 96, PO450
[20] = Day 5, 8-12 hour Post t = 96, IV_PO300
[21] = Day 5, 8-12 hour Post t = 96, PO300
[22] = Day 5, 8-12 hour Post t = 96, PO450
[23] = Day 5-6, 12-24 hour Post t = 96, IV_PO300
[24] = Day 5-6, 12-24 hour Post t = 96, PO300
[25] = Day 5-6, 12-24 hour Post t = 96, PO450
[26] = Day 5, 200 mg IV, 300 mg po (n = 11)

## CN(C)c1cc(CNCC(C)(C)C)c(O)c2c1C[C@H]1C[C@H]3[C@H](N(C)C)C(O)=C(C(N)=O)C(=O)[C@@]3(O)C(O)=C1C2=O [Compound 1, 9-[(2,2-dimethyl-propylamino)-methyl]-minocycline]
[1]
  Urine Concentration, Mean: 65360.0 ng/mL
  Urine Concentration, Median: 55000.0 ng/mL
[2]
  Urine Concentration, Mean: 14003.0 ng/mL
  Urine Concentration, Median: 14020.0 ng/mL
[3]
  Urine Concentration, Mean: 23008.0 ng/mL
  Urine Concentration, Median: 10500.0 ng/mL
[4]
  Urine Concentration, Mean: 43548.2 ng/mL
  Urine Concentration, Median: 40900.0 ng/mL
[5]
  Urine Concentration, Mean: 19088.9 ng/mL
  Urine Concentration, Median: 16800.0 ng/mL
[6]
  Urine Concentration, Mean: 20537.8 ng/mL
  Urine Concentration, Median: 15500.0 ng/mL
[7]
  Urine Concentration, Mean: 32407.3 ng/mL
  Urine Concentration, Median: 33700.0 ng/mL
[8]
  Urine Concentration, Mean: 19981.0 ng/mL
  Urine Concentration, Median: 13650.0 ng/mL
[9]
  Urine Concentration, Mean: 11699.0 ng/mL
  Urine Concentration, Median: 8995.0 ng/mL
[10]
  Urine Concentration, Mean: 22410.0 ng/mL
  Urine Concentration, Median: 19300.0 ng/mL
[11]
  Urine Concentration, Mean: 20772.0 ng/mL
  Urine Concentration, Median: 21300.0 ng/mL
[12]
  Urine Concentration, Mean: 25713.0 ng/mL
  Urine Concentration, Median: 19550.0 ng/mL
[13]
  fe0-24 [dose absorbed]: 20.4%
  fe0-24 [dose administered]: 20.4%
Day 1, 200 mg IV, 300 mg po (n = 11), total dose 200 IV
  Ae0-24 (amount excreted in urine): 40.70 mg
Day 1, 300 mg po (n = 10)
  fe0-24 [dose absorbed]: 18.7%
  fe0-24 [dose administered]: 6.5%
Day 1, 300 mg po (n = 10), total dose 600 po
  Ae0-24 (amount excreted in urine): 39.24 mg
Day 1, 450 mg po (n = 10)
  fe0-24 [dose absorbed]: 11.4%
  fe0-24 [dose administered]: 4.0%
Day 1, 450 mg po (n = 10), total dose 900 po
  Ae0-24 (amount excreted in urine): 35.95 mg
[14]
  Urine Concentration, Mean: 42710.0 ng/mL
  Urine Concentration, Median: 26250.0 ng/mL
[15]
  Urine Concentration, Mean: 30900.0 ng/mL
  Urine Concentration, Median: 26850.0 ng/mL
[16]
  Urine Concentration, Mean: 35988.9 ng/mL
  Urine Concentration, Median: 25700.0 ng/mL
[17]
  Urine Concentration, Mean: 26090.0 ng/mL
  Urine Concentration, Median: 28500.0 ng/mL
[18]
  Urine Concentration, Mean: 29111.1 ng/mL
  Urine Concentration, Median: 18200.0 ng/mL
[19]
  Urine Concentration, Mean: 48117.0 ng/mL
  Urine Concentration, Median: 33700.0 ng/mL
[20]
  Urine Concentration, Mean: 33237.0 ng/mL
  Urine Concentration, Median: 14850.0 ng/mL
[21]
  Urine Concentration, Mean: 25350.0 ng/mL
  Urine Concentration, Median: 19600.0 ng/mL
[22]
  Urine Concentration, Mean: 30466.0 ng/mL
  Urine Concentration, Median: 20600.0 ng/mL
[23]
  Urine Concentration, Mean: 21480.0 ng/mL
  Urine Concentration, Median: 12590.0 ng/mL
[24]
  Urine Concentration, Mean: 17940.0 ng/mL
  Urine Concentration, Median: 16000.0 ng/mL
[25]
  Urine Concentration, Mean: 30280.0 ng/mL
  Urine Concentration, Median: 23400.0 ng/mL
[26]
  fe0-24 [dose absorbed]: 30.7%
  fe0-24 [dose administered]: 10.8%
Day 5, 200 mg IV, 300 mg po (n = 11), total dose 300 po
  Ae0-24 (amount excreted in urine): 32.27 mg
Day 5, 300 mg po (n = 10)
  fe0-24 [dose absorbed]: 36.4%
  fe0-24 [dose administered]: 12.7%
Day 5, 300 mg po (n = 10), total dose 300 po
  Ae0-24 (amount excreted in urine): 38.21 mg
Day 5, 450 mg po (n = 10)
  fe0-24 [dose absorbed]: 34.8%
  fe0-24 [dose administered]: 12.2%
Day 5, 450 mg po (n = 10), total dose 450 po
  Ae0-24 (amount excreted in urine): 54.87 mg
intravenous, 200 mg, Day 1, IV_PO300, read-out: Renal CL, Geo. Mean (converted)
  clearance: 33 mL/min
intravenous, 200 mg, Day 1, IV_PO300, read-out: Renal CL, Mean (converted)
  clearance: 38.3 mL/min
intravenous, 200 mg, Day 1, IV_PO300, read-out: Renal CL, Median (converted)
  clearance: 27.2 mL/min
oral, 300 mg, Day 5, IV_PO300, read-out: Renal CL, Geo. Mean (converted)
  clearance: 63 mL/min
oral, 300 mg, Day 5, IV_PO300, read-out: Renal CL, Mean (converted)
  clearance: 94.6 mL/min
oral, 300 mg, Day 5, IV_PO300, read-out: Renal CL, Median (converted)
  clearance: 44 mL/min
oral, 300 mg, Day 5, PO300, read-out: Renal CL, Geo. Mean (converted)
  clearance: 57.4 mL/min
oral, 300 mg, Day 5, PO300, read-out: Renal CL, Mean (converted)
  clearance: 78.2 mL/min
oral, 300 mg, Day 5, PO300, read-out: Renal CL, Median (converted)
  clearance: 58.6 mL/min
oral, 450 mg, Day 5, PO450, read-out: Renal CL, Geo. Mean (converted)
  clearance: 21.5 mL/min
oral, 450 mg, Day 5, PO450, read-out: Renal CL, Mean (converted)
  clearance: 29.1 mL/min
oral, 450 mg, Day 5, PO450, read-out: Renal CL, Median (converted)
  clearance: 27.8 mL/min
urine, Day 1, IV_PO300
  Ae 0-4 hrs, Geo. Mean: 11.59 mg
  Ae 0-4 hrs, Mean: 13.80 mg
  Ae 0-4 hrs, Median: 9.74 mg
  Ae 0-24 hrs, Geo. Mean: 36.98 mg
  Ae 0-24 hrs, Median: 41.40 mg
  Ae 4-8 hrs, Geo. Mean: 7.28 mg
  Ae 4-8 hrs, Mean: 8.61 mg
  Ae 4-8 hrs, Median: 7.96 mg
  Ae 8-12 hrs, Geo. Mean: 5.53 mg
  Ae 8-12 hrs, Mean: 6.80 mg
  Ae 8-12 hrs, Median: 6.17 mg
  Ae 12-24 hrs, Geo. Mean: 12.70 mg
